Laboratory results reported in US20110111040A1, “POLYELECTROLYTE-ENCAPSULATED GOLD NANOPARTICLES CAPABLE OF CROSSING BLOOD-BRAIN BARRIER” (priority 2008, published 2011).

What was measured:
[1] = Electrophoretic mobility (ue) measurements as a function of pH; type: physicochemical
Protocol: Electrophoretic mobility (ue) measurements were performed in a Malvern Zetasizer 2000 apparatus (Malvern Instruments, England) at room temperature. Measurements were carried out 24 hours after the preparation of the suspensions, and the pH was readjusted immediately before the mobility was measured. In FIG. 1. electrophoretic mobility as a function of the pH of the gold nanoparticles, creatine, gold-creatine composite particles, and albumin are shown. As observed, the gold nanoparticles present a negative electrophoretic mobility (ue) over the whole range of pH, characteristic of the citrate molecules adsorbed on them, becoming more negative with pH increase. […] On the contrary, albumin molecules present an isoelectric point between pH 4.5-5, becoming more negative with pH increase.

[2] = albumin alone; stated without own test; cited from earlier work

| Molecule | electrophoretic mobility (ue) ([1]; acidic conditions) | electrophoretic mobility (ue) ([1]; whole range of pH) | crossing of the blood brain barrier [2] | isoelectric point [1] |
| --- | --- | --- | --- | --- |
| CN(CC(=O)O)C(=N)N [Creatine] | very close to zero | negative |  |  |
| albumin |  |  | not able to cross the blood brain barrier | 4.5-5 pH |
